Measured values: ChEMBL document CHEMBL2396565, “An epigenetic modifier enhances the production of anti-diabetic and anti-inflammatory sesquiterpenoids from Aspergillus sydowii” (Bioorg Med Chem, 2013)
Blank lines part the entries; values can stand above or below the compound they belong to. Activity calls are given as the source filed them. The calls are words filed in the database; no cut-off is given here.

Experiments:
[1] = Antiinflammatory activity in human neutrophils assessed as inhibition of fMLP/CB-induced elastase release at 10 ug/mL after 5 mins by spectrophotometric analysis relative to control; type: functional; conditions: Neutrophil
[2] = Antiinflammatory activity in human neutrophils assessed as inhibition of fMLP/CB-induced elastase release after 5 mins by spectrophotometric analysis; type: functional, cell-based; conditions: Neutrophil
[3] = Antiinflammatory activity in human neutrophils assessed as inhibition of fMLP/CB-induced superoxide generation at 10 ug/mL after 5 mins by spectrophotometric analysis relative to control; type: functional; conditions: Neutrophil
[4] = Antiinflammatory activity in human neutrophils assessed as inhibition of fMLP/CB-induced superoxide generation after 5 mins by spectrophotometric analysis; type: functional, cell-based; conditions: Neutrophil
3T3-L1 [5] = assay: Potentiation of insulin-stimulated glucose consumption in mouse 3T3L1 cells at 30 ug/mL after 24 hrs; type: functional, cell-based
3T3-L1 [6] = assay: Potentiation of insulin-stimulated glucose consumption in mouse 3T3L1 cells assessed as glucose concentration in culture medium at 30 ug/mL after 24 hrs (reference value: 427.4 mg/dL); type: functional
3T3-L1 [7] = assay: Inhibition of lipid accumulation in mouse 3T3L1 cells at 30 ug/mL after 8 days by Oil red O staining-based microscopic analysis relative to control; type: functional; conditions: 3T3-L1, 192 h

- IC50 [2]: 12.6 µM
- IC50 [4]: 21.2 µM
Structure (SMILES): COC(=O)c1c(O)ccc2oc3cc(CO)cc(O)c3c(=O)c12 [SYDOWININ B]
- inhibition at 10 µg/mL [1]: 85%
- inhibition at 10 µg/mL [3]: 66.2%

- IC50 [2]: > 10 mg/L
- IC50 [4]: > 10 mg/L
Structure (SMILES): COC(=O)c1cccc2oc3cc(CO)cc(O)c3c(=O)c12 [SYDOWININ A]
- inhibition at 10 µg/mL [1]: 28.7%
- inhibition at 10 µg/mL [3]: 38.1%

- IC50 [2]: > 10 mg/L
- IC50 [4]: 21.5 µM
Structure (SMILES): C/C(=C\CCC(C)CO)c1ccc(CO)cc1O (stereo unspecified)
- inhibition at 10 µg/mL [1]: 6.68%
- inhibition at 10 µg/mL [3]: 71.7%
- Activity (3T3-L1 [5]): Active

- IC50 [2]: 8.8 µM
- IC50 [4]: 6.11 µM
Structure (SMILES): C/C(=C\CCC(C)C)c1ccc(CO)cc1O
- inhibition at 10 µg/mL [1]: 84.3%
- inhibition at 10 µg/mL [3]: 97.8%

Second part, the compound before the results:

Structure (SMILES): CNC(=O)c1cc(Oc2ccc(NC(=O)Nc3ccc(Cl)c(C(F)(F)F)c3)cc2)ccn1 [SORAFENIB]
- inhibition at 10 µg/mL [1]: 83%
- IC50 [2]: 5.62 µM
- inhibition at 10 µg/mL [3]: 70.9%
- IC50 [4]: 1.27 µM

Structure (SMILES): Cc1cc(O)cc(Oc2cc(C)cc(O)c2)c1 [DIORCINOL]
- inhibition at 10 µg/mL [1]: 39.8%
- IC50 [2]: > 10 mg/L
- inhibition at 10 µg/mL [3]: 92%
- IC50 [4]: 12.2 µM

Structure (SMILES): COC(=O)[C@@H]1c2c(oc3cc(CO)cc(O)c3c2=O)C=C[C@H]1O
- inhibition at 10 µg/mL [1]: 98.9%
- IC50 [2]: 6.6 µM
- inhibition at 10 µg/mL [3]: 102%
- IC50 [4]: 6 µM

Structure (SMILES): CO[C@@](C)(CCCC(C)C)c1ccc(CO)cc1O [(7S)-(+)-7-O-METHYLSYDONOL]
- inhibition at 10 µg/mL [1]: 29.8%
- IC50 [2]: > 10 mg/L
- inhibition at 10 µg/mL [3]: 69%
- IC50 [4]: 13.8 µM
- Activity (3T3-L1 [5]): Active

Structure (SMILES): CC(C)CCC[C@](C)(O)c1ccc(C(=O)O)cc1O
- inhibition at 10 µg/mL [1]: 2.56%
- IC50 [2]: > 10 mg/L
- inhibition at 10 µg/mL [3]: 60.2%
- IC50 [4]: 27.8 µM
- Activity (3T3-L1 [6]): 381.4 mg/dL

Structure (SMILES): CC(C)CCC[C@](C)(O)c1ccc(CO)cc1O [(S)-(+)-SYDONOL]
- inhibition at 10 µg/mL [1]: 65.3%
- IC50 [2]: 16.4 µM
- inhibition at 10 µg/mL [3]: 87%
- IC50 [4]: 5.23 µM
- inhibition at 30 µg/mL (3T3-L1 [7]): ≤ 48%
- Activity (3T3-L1 [5]): Active
- Activity (3T3-L1 [6]): 324.6 mg/dL
